Laboratory results taken from patent US9987294B2, “Mitochondria-targeted anti-tumor agents” (University of Massachusetts, priority 2007, dated 2018).
Entries after “also recorded” stand apart in the source; their conditions may differ. Where a name gives a salt, the structure may show the parent alone. Where no end group is shown, it is not given here. [ ]: non-standard residue; d: D form.

How the values were obtained:
[1] = system: normal human fibroblast cell types (WS-1, HGF, HFF); experiment: Cell viability by MTT, normal human fibroblast cell types; details: concentrations comparable to those killing tumor cells
Method: Changes in protein expression in the various experiments of siRNA targeting were assessed by Western blotting. For analysis of TRAP-1-directed cytoprotection, primary nontransformed human fibroblasts HFF and WS-1 were transfected with control pcDNA3 or TRAP-1 cDNA by lipofectamine for 24 hours, exposed to increasing concentrations (0-1 μM) of the cell death stimulus staurosporine (STS), and analyzed for cell viability after additional 24 hours incubation by MTT. For analysis of apoptosis, p53+/+ or p53−/−HCT116 cells were treated with control or ANT-GA (100 μM), and analyzed for DEVDase activity (CaspaTag) and propidium iodide staining by simultaneous multiparametric flow cytometry, as described (Dohi et al., J. Clin. Invest. 114(8):1117-27, (2004); Plescia et al., Cancer Cell, 7:457-468, (2005)).

tumor mitochondria = experiment: Cytochrome c release from drug-treated isolated tumor mitochondria; type: biochemical; details: 3 hours (FIG. 16D)
Method: Tumor cell types were treated with controls or the various Hsp90 antagonists, and cytosolic extracts were harvested at increasing time intervals between 5-30 minutes and analyzed by Western blotting. For experiments in a cell-free system, purified mitochondria (20 μg) were suspended in 500 μl of SB buffer (0.2 M sucrose, 10 mM Tris-MOPS, pH 7.4, 5 mM succinate, 1 mM sodium phosphate, 10 μM EGTA-Tris, and 2 μM rotenone). […] At the end of each incubation reaction, mitochondria and supernatants were separated by centrifugation at 6,000×g for 10 minutes, and analyzed by Western blotting.
(§1) The fluorescence intensity after treatment with 2 mM CaCl2 corresponded to a fully depolarized state. Alternatively, H460 cells were labeled with the fluorescent dye JC-1 (Molecular Probes), and analyzed for changes in red/green (F1-2/F1-1) fluorescence ratio after treatment with the various agents, by multiparametric flow cytometry. Cytochrome c content in pellets or supernatants of drug-treated isolated mitochondria was determined by Western blotting.

[2] = system: isolated tumor mitochondria; experiment: Inner membrane potential of TMRM-loaded tumor mitochondria; type: biochemical
Method: as §1

[3] = system: lung adenocarcinoma H460 cells; experiment: Cell viability by MTT, H460; type: cell-based, human; details: 3 hour exposure
Method: (§2) Modulation of cell viability was determined by MTT (Kang et al., “Regulation of tumor cell mitochondrial homeostasis by an organelle-specific Hsp90 chaperone network,” Cell, 131:257-270 (2007)). For determination of apoptosis, cells were analyzed for caspase activity (DEVDase activity) and plasma membrane integrity (propidium iodide) using CaspaTag (Intergen, Burlington, Mass.), by multiparametric flow cytometry (Kang et al., “Regulation of tumor cell mitochondrial homeostasis by an organelle-specific Hsp90 chaperone network,” Cell, 131:257-270 (2007)).

[4] = system: H460 lung adenocarcinoma xenograft tumors; experiment: Xenograft tumor growth, H460; type: in vivo, mice; details: i.p.; G4 and 17-AAG 2-3 mg/kg twice daily, G1 30-50 mg/Kg daily, TPP 10 mg/Kg daily
Method: To create the models used in this example, HL60 (10×10^6) or H460 (4×10^6) cells suspended in sterile PBS (200 μl) were injected subcutaneously into both flanks of 10 week-old CB17 SCID/beige (Taconic Farms) immunocompromised female mice. Alternatively, MDA-MB-231 cells (5×10^6) suspended in 200 μl of 50% Matrigel (BD Biosciences) were used for subcutaneous injection in CB17 SCID/beige mice. When superficial tumors reached volumes of 100-150 mm^3, animals were randomized in two groups (2 tumors/mouse, 3 animals/group), and treated with vehicle (DMSO) or Gamitrinib dissolved in 20% Cremophor EL (Sigma) in PBS by intraperitoneal (i.p.) injection. Gamitrinib-G4 was used as sterile i.p. injections with the following schedules: HL60 xenografts, 2 mg/Kg twice daily; H460 xenografts, 2 mg/kg twice daily for d 0, 2.5 mg/kg twice daily for d 1, 3.0 mg/kg twice daily for the duration of treatment; MDA-MB-231 xenografts, 2 mg/Kg twice daily for d 0-2, 2.5 mg/Kg twice daily for d 3-5, and 3 mg/Kg twice daily throughout the rest of the treatment. 17-AAG was dissolved in 20% Cremophor EL and used as systemic i.p. injections with the same dose-escalating regimen as Gamitrinib-G4 in H460 xenograft studies. Gamitrinib-G1 was used with following schedules: 30 mg/Kg daily (d 0-2), and 50 mg/Kg daily for the rest of treatment. Gamitrinib-TPP was used as i.p. injections at 10 mg/Kg daily throughout the duration of the experiment. Tumor measurements were taken daily with a caliper, and tumor volume was calculated with the formula ([length in millimeters]×[width in millimeters]^2)/2. Mice in the various treatment groups were weighed at the beginning and at the end of each experiment.

[5] = system: breast adenocarcinoma SKBr3 cells; experiment: Metabolic activity by MTT, SKBr3; type: cell-based; details: 10 μM; by 48 hours and throughout a 96-hours interval
Method: as §2

TRAP-1 and Hsp90 = experiment: Fractionation of Raji mitochondrial extracts over Shepherdin-Sepharose or scrambled peptidomimetic-Sepharose; type: binding, human; details: coupled to Sepharose beads, Western blotting
[6] = system: Ras-transformed NIH3T3 mitochondria; experiment: Mitochondrial membrane potential of TMRM-loaded isolated mitochondria; type: biochemical
Method: Raji cells were treated with Shepherdin or control scrambled peptidomimetic (100 μM) or 17-AAG (5 μM), loaded with the mitochondrial membrane potential-sensitive fluorescent dye JC-1, and analyzed for changes in green/red fluorescence ratio by flow cytometry. For experiments in a cell-free system, purified mitochondria isolated from primary normal cells, various tumor cells types, or normal mouse organs were suspended in SB buffer. […] For these experiments, TMRM-loaded mitochondria in SB buffer were allowed to reach stable fluorescence, which was set as fully polarized state (maximum membrane potential). The fluorescence intensity after treatment with 2 mM CaCl2 was set as minimum membrane potential (fully depolarized state). Changes in fluorescence intensity after each treatment were plotted as a ratio between maximum and minimum membrane potential.

CC[C@H](C)[C@H](NC(=O)[C@H](CCCCN)NC(=O)[C@@H](NC(=O)[C@H](CCC(N)=O)NC(=O)[C@@H](N)CCCNC(=N)N)[C@@H](C)CC)C(=O)N[C@@H](Cc1c[nH]c2ccccc12)C(=O)N[C@@H](Cc1ccccc1)C(=O)N[C@@H](CCC(N)=O)C(=O)N[C@@H](CC(N)=O)C(=O)N[C@@H](CCCNC(=N)N)C(=O)N[C@@H](CCCNC(=N)N)C(=O)N[C@@H](CCSC)C(=O)N[C@@H](CCCCN)C(=O)N[C@@H](Cc1c[nH]c2ccccc12)C(=O)N[C@@H](CCCCN)C(=O)N[C@@H](CCCCN)C(=O)N[C@@H](CSC1CC(=O)N(CCCC(=O)NCCCNC2=C3C[C@@H](C)C[C@H](OC)[C@H](O)[C@@H](C)/C=C(\C)[C@H](OC(N)=O)[C@@H](OC)/C=C\C=C(/C)C(=O)NC(=CC2=O)C3=O)C1=O)C(N)=O (some centres unmarked) [ANT-GA]
viability of normal human fibroblast cell types [1]: none of the compounds affected the viability of various normal human fibroblast cell types

COc1c(C)cnc(Cn2cnc3c(Cl)nc(N)nc32)c1C [BIIB021]
cytochrome c release from mitochondria (tumor mitochondria): had no effect on cytochrome c release

CO[C@H]1/C=C\C=C(/C)C(=O)NC2=CC(=O)C(NCCN(C)C)=C(C[C@@H](C)C[C@H](OC)[C@H](O)[C@@H](C)/C=C(\C)[C@@H]1OC(N)=O)C2=O [DMAG, 17-(dimethylaminoethylamino)-17-demethoxygeldanamycin]
mitochondrial inner membrane potential [2]: did not affect mitochondrial membrane potential

COC1=C2C[C@@H](C)C[C@H](OC)[C@H](O)[C@@H](C)/C=C(\C)[C@H](OC(N)=O)[C@@H](OC)/C=C\C=C(/C)C(=O)NC(=CC1=O)C2=O [GA, geldanamycin]
viability of normal human fibroblast cell types [1]: none of the compounds affected the viability of various normal human fibroblast cell types

CO[C@H]1/C=C\C=C(/C)C(=O)NC2=CC(=O)C(NCCCNC(=O)CCCN3C(=O)CC(SC[C@H]4CCN5CC[C@H](CO[Si](c6ccccc6)(c6ccccc6)C(C)(C)C)N=C5N4)C3=O)=C(C[C@@H](C)C[C@H](OC)[C@H](O)[C@@H](C)/C=C(\C)[C@@H]1OC(N)=O)C2=O (stereo partly drawn) [Gamitrinib-G1, (4E,6Z,8S,9S,10E,12S,13R,14S,16R)-19-(3-(4-(3-(((2R,8R)-8-((tert-butyldiphenylsilyloxy)methyl)-2,3,4,6,7,8-hexahydro-1H-pyrimido[1,2-a]pyrimidin-2-yl)methylthio)-2,5-dioxopyrrolidin-1-yl)butanamido)propylamino)-13-hydroxy-8,14-dimethoxy-4,10,12,16-tetramethyl-3,20,22-trioxo-2-azabicyclo[16.3.1]docosa-1(21),4,6,10,18-pentaen-9-yl carbamate, hexafluorophosphate salt]
cell viability [3]: had no effect | tumor growth [4]: also inhibited lung cancer growth in vivo

CO[C@H]1/C=C\C=C(/C)C(=O)NC2=CC(=O)C(NCCCNC(=O)CCCN3C(=O)CC(SC[C@H]4CCN5CC[C@H](CSC[C@H]6CCN7CC[C@H](CO[Si](c8ccccc8)(c8ccccc8)C(C)(C)C)N=C7N6)N=C5N4)C3=O)=C(C[C@@H](C)C[C@H](OC)[C@H](O)[C@@H](C)/C=C(\C)[C@@H]1OC(N)=O)C2=O (some centres unmarked) [Gamitrinib-G2]
cell viability [3]: had intermediate activity

CO[C@H]1/C=C\C=C(/C)C(=O)NC2=CC(=O)C(NCCCNC(=O)CCCN3C(=O)CC(SC[C@H]4CCN5CC[C@H](CSC[C@H]6CCN7CC[C@H](CSC[C@H]8CCN9CC[C@H](CO[Si](c%10ccccc%10)(c%10ccccc%10)C(C)(C)C)N=C9N8)N=C7N6)N=C5N4)C3=O)=C(C[C@@H](C)C[C@H](OC)[C@H](O)[C@@H](C)/C=C(\C)[C@@H]1OC(N)=O)C2=O.F[P-](F)(F)(F)(F)F.F[P-](F)(F)(F)(F)F.F[P-](F)(F)(F)(F)F (some centres unmarked) [Gamitrinib-G3]
cell viability [3]: complete loss of cell viability | IC50 ([3]; read-out: IC50, loss of cell viability): ~500 nM

CO[C@H]1/C=C\C=C(/C)C(=O)NC2=CC(=O)C(NCCCCCC[P+](c3ccccc3)(c3ccccc3)c3ccccc3)=C(C[C@@H](C)C[C@H](OC)[C@H](O)[C@@H](C)/C=C(\C)[C@@H]1OC(N)=O)C2=O [Gamitrinib-TPP, (4E,6Z,8S,9S,10E,12S,13R,14S,16R)-19-(6-(triphenylphosphonio)hexylamino)-13-hydroxy-8,14-dimethoxy-4,10,12,16-tetramethyl-3,20,22-trioxo-2-azabicyclo[16.3.1]docosa-1(21),4,6,10,18-pentaen-9-yl carbamate hexafluorophosphate]
mitochondrial inner membrane potential [2]: promptly depolarized tumor mitochondria | cell viability [3]: had intermediate activity | metabolic activity [5]: comparably reduced metabolic activity | tumor growth [4]: also inhibited lung cancer growth in vivo

C=CCNc1c(O)cc2c(O)c1C[C@@H](C)C[C@H](OC)[C@H](O)[C@@H](C)/C=C(\C)[C@H](OC(N)=O)[C@@H](OC)/C=C\C=C(/C)C(=O)N2 [IPI-504]
cytochrome c release from mitochondria (tumor mitochondria): had no effect on cytochrome c release

CCNC(=O)c1noc(-c2cc(C(C)C)c(O)cc2O)c1-c1ccc(CN2CCOCC2)cc1 [NVP-AUY922]
cytochrome c release from mitochondria (tumor mitochondria): had no effect on cytochrome c release

Sheph: Shepherdin lacking the Antennapedia cell-penetrating sequence ([dL][dF][dA][dC]G[dS][dS][dH][dK])
association of Hsp90 and TRAP-1 with immobilized peptidomimetic (TRAP-1 and Hsp90): specific elution of both TRAP-1 and Hsp90; also recorded: Hsp90 and TRAP-1 are bound by Shepherdin-Sepharose | membrane potential of mitochondria [6]: induces loss of mitochondrial membrane potential in transformed cells
